Patent publication US9724537B2, “Abnormal electrical conduction blocking apparatus using photodynamic therapy (PDT)” (Keio University, priority 2006, dated 2017)

Key:
[1] = Fluorescence observation of photosensitizer distribution in rat cardiac muscle tissue over time; type: in vivo, Wistar rat; conditions: 2 mg/kg i.v.
Description: As a tissue, the right ventricular free wall isolated from a Wistar rat (male, 8 to 10 weeks old) was used. Immediately after animals were allowed to inhale vaporized diethyl ether, heparin and Nembutal (0.2 and 0.5 ml, respectively) were administered intraperitoneally at a dose of 2 mg/kg, and a solution of Laserphyrin (Meiji Seika Kaisha, Ltd.) dissolved in physiological saline at a dose of 0.5 ml were intravenously injected from the lower extremity vena cava. The heart was isolated at 5 min (Experiment 1), 30 min (Experiment 2), and 60 min (Experiment 3) after injection, and the target tissue was ablated. […] As a sample for fluorescence observation, a cross-section of the above-mentioned tissue was excised in a thickness of 10 μm using a freezing microtome in the direction in which the base and the apex of the heart are aligned, placed on a slide glass, and dried for one or two days.
A light of a mercury lamp (Olympus Corporation) was attenuated with an ND filter (Olympus Corporation, 12%), and only a light in the 400-nm band was extracted with a band path filter (Olympus Corporation) and delivered to the sample as an excitation light. Fluorescence of the photosensitizer was selectively extracted with a dichroic mirror (OMEGA, 636 nm-) and a band path filter (OMEGA, 695 nm; half bandwidth, 27.5 nm) and photographed with a CCD camera. […]

[2] = test system: rat cardiac muscle cells in primary culture; assay: PDT cell lethality (CCK-8) in cardiac muscle cells in primary culture; type: cell-based
Description: The relationship between the photosensitizer concentration and the cell lethality and the laser output required to induce a cell death were investigated using rat cardiac muscle cells in primary culture.
Cardiac muscle cells in primary culture were purchased from Cell Garage Co., Ltd. as an extract from the rat ventricular muscle. As a medium, D-MEM/F12+10% FBS was used.
Cardiac muscle cells in primary culture were purchased in suspension and seeded on a 96-well microplate. Cells were cultured at 37° C. under 5% CO2, and cells on days 3 and 7 of culture were used. The cardiac muscle cells in primary culture were pulsatile, and pulsations among cells were synchronizing.
Cardiac muscle cells in primary culture were adjusted to a density of 2.0×10^4 cells/well. As a photosensitizer talaporfin sodium was dissolved in a medium at various concentrations and added at a concentration of 0.1 ml/well. After 1 to 2 h of loading, laser irradiation was performed, and the medium was replaced after the completion of irradiation.
At this time, a 0.5-cm^2 irradiation field (=area of well) was irradiated with a continuous semiconductor laser beam (peak wavelength, 670.8 nm) under various conditions.
After laser irradiation, 0.01 ml of Cell Counting Kit-8 (Dojindo Laboratories, hereinafter referred to as CCK-8) was added to the medium in each well, the plate was incubated for 2 h, and the absorbance was measured to calculate the cell lethality. Six samples were examined
The experimental conditions were as follows.
(i) Cells on day 3 of culture
Used cells: cells on day 3 of culture
Agent concentrations: 5, 10, 15 μg/ml
Laser intensity: 150 mW/cm^2
Total energy density: 1, 2, 3, 5 J/cm^2
(ii) Cells on day 7 of culture
Used cells: cells on day 7 of culture
Agent concentrations: 20, 25, 30 μg/ml
Total energy density: 3 J/cm^2

[3] = test system: rat atrioventricular node; assay: Atrioventricular block experiment by PDT in in vivo system; design: species or system Wistar rat
Description: Wistar rats (male, 8 weeks old) were anesthetized by inhalation of diethyl ether, four limbs and front teeth were fixed, a tube was inserted into the bronchial tube, and an artificial ventilator (Natsume Seisakusho Co., Ltd.) and a forane vaporizer anesthesia apparatus (Shinano Instrument, Co., Ltd.) were introduced into the body. Thoracotomy was performed between the right chest rib, and the experiment was performed while the heart was exposed.
A solution obtained by dissolving Laserphyrin in 5 ml of physiological saline was administered to venous blood from the right ventricular cavity. The photosensitizer dose (D) and the interval to photoradiation in each experiment were as follows.
Experiment 1: D=2 mg/kg, laser irradiation at interval of 5 and 60 min
Experiment 2: D=10 mg/kg, laser irradiation at interval of 2 and 30 min
A semiconductor laser beam (SONY, wavelength peak, 670 nm band) was transmitted using a quartz fiber with a laser intensity of 500 mW/cm^2 at the end. The end was attached to a portion in the vicinity of the base of the aorta, and photoradiation was performed towards the atrioventricular node (existing in a portion approx. 3 mm deep from the surface) in the right atrial inner wall for 10 min with the total dose of laser irradiation of 300 J/cm^2 (FIG. 30).
A needle electrode was inserted into four limbs of a rat, electrocardiogram leads I, II, and III were induced with an electrocardiograph (Nihon Kohden Corporation), and signals were recorded using a biosignal recording/analyzing apparatus and analyzed (FIG. 31). FIG. 31 is a schematic view showing an in vivo experimental system.
After completion of the experiment, the rat chest was closed and sutured. Then, a normal feed and water were given and allowed to survive, and anesthetized again at approx. 2 weeks so that electrocardiography should be performed.
The heart sample of Experiment 1 was isolated after electrocardiography at 2 weeks (the isolation method was the same as in Example 6), 4% paraformaldehyde was introduced from the coronary artery, and the perfusion-fixed sample was immersed in approx. 40 ml of the solution and left on a mix roller overnight. Then, a HE sample and an Azan stained specimen at a laser irradiation site were prepared and observed under a microscope.

[4] = Experiment 2: 10 mg/kg, 300 J/cm^2
[5] = Experiment 2: 10 mg/kg, interval 30 min, 300 J/cm^2

SMILES: C=Cc1c(C)c2cc3nc(c(CC(=O)N[C@@H](CC(=O)O)C(=O)O)c4[nH]c(cc5nc(cc1[nH]2)C(C)=C5CC)c(C)c4C(=O)O)[C@@H](CCC(=O)O)[C@@H]3C [talaporfin sodium, mono-L-aspartyl chlorine 6]
- photosensitizer distribution in cardiac muscle tissue ([1]; 30 and 60 min after injection): white streaks were observed all over the images at 30 and 60 min, showing the existence of the photosensitizer in the surroundings
- photosensitizer distribution in cardiac muscle tissue ([1]; approx. 5 min after injection): almost no photosensitizer was present immediately after the intravenous injection
- cell lethality at 5 J/cm^2 vs 3 J/cm^2 ([2]; cells on day 3 of culture, 15 μg/ml): the cell lethality decreased at the total energy density of laser irradiation of 5 J/cm^2 as compared with that at 3 J/cm^2
- cell lethality vs total energy density ([2]; cells on day 3 of culture, high talaporfin sodium concentration, 1, 2, 3, 5 J/cm^2, FIG. 10): the greater the total energy density of laser irradiation was, the higher cell lethality was
- cell lethality, day 7 vs day 3 cells ([2]; cells on day 7 of culture, 20, 25, 30 μg/ml, 3 J/cm^2, FIG. 11): the cell lethality was higher than when cells on day 3 of culture were used
- electrocardiogram after 2 weeks ([3]; Experiment 1: 2 mg/kg, 300 J/cm^2): the 2:1 atrioventricular block disappeared, and a normal atrioventricular conduction was confirmed
- histology (Azan stain) at laser irradiation site at 2 weeks ([3]; Experiment 1: 2 mg/kg, 300 J/cm^2, FIG. 36): a scar tissue (a damaged cellular tissue was replaced with the surrounding collagenic fibers) is observed
- atrioventricular block (electrocardiogram) ([3]; Experiment 1: 2 mg/kg, interval 5 min, 300 J/cm^2): an atrioventricular block disappeared during the process of photoradiation
- atrioventricular block (electrocardiogram) after photoradiation ([3]; Experiment 1: 2 mg/kg, interval 60 min, 300 J/cm^2): 2:1 atrioventricular block
- completeness of conduction block ([3]; Experiment 1, laser irradiation dose 300 J/cm^2): the conduction block was incomplete
- electrocardiogram at 2 weeks [3, 4]: a finding of a complete atrioventricular block
- time the conduction block effect by PDT was maintained [3, 4]: 2 weeks
- atrioventricular block (electrocardiogram) ([3]; Experiment 2: 10 mg/kg, interval 2 min, 300 J/cm^2): a 2:1 atrioventricular block occurred, but was resolved thereafter
- atrioventricular block (electrocardiogram) [3, 5]: a 2:1 atrioventricular block and a complete atrioventricular block occurred from immediately after photoradiation
- electrocardiogram finding after completion of photoradiation [3, 5]: extrasystoles of the ventricle were observed
